Source: ChEMBL document CHEMBL1201862, “PubChem BioAssay data set” (2004)
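Method: 48-hour compound exposure of cells in 96-well plates, five concentrations, linear interpolation of endpoints. Abbreviation: GI50, concentration required for 50% inhibition of growth.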 Active and inactive are the calls of the source. No stated cut-off is given here; in the data, active = GI50 up to about 1.1 µM and inactive = higher.

Experiments:
Test in all cases: inhibition of tumour cell growth, NCI panel, 48 h
M19-MEL = system: M19-MEL
HOP-18 = system: HOP-18
SNB-78 = system: SNB-78
LXFL 529 = system: LXFL 529
DLD-1 = system: DLD-1
DMS-114 = system: DMS-114
DMS-273 = system: DMS-273
XF498 = system: XF498
RXF 631 = system: RXF 631

SMILES	GI50 (M19-MEL)	GI50 (HOP-18)	GI50 (SNB-78)	GI50 (LXFL 529)	GI50 (DLD-1)	GI50 (DMS-114)	GI50 (DMS-273)	GI50 (XF498)	GI50 (RXF 631)
c1ccc(C2=NOC3C4CCC(C4)C23)cc1 (configuration not stated)	> 100 µM (inactive)	> 100 µM (inactive)	> 100 µM (inactive)	> 100 µM (inactive)	> 100 µM (inactive)	> 100 µM (inactive)	> 100 µM (inactive)		
O=C(CC1(O)C(=O)Nc2ccccc21)c1ccc(O)cc1O (configuration not stated)	> 100 µM (inactive)		> 100 µM (inactive)	> 100 µM (inactive)	> 100 µM (inactive)	> 100 µM (inactive)	> 100 µM (inactive)	> 100 µM (inactive)	
COc1ccc(/C=C/C(=O)C(C)C)cc1	59.6 µM (inactive)	41.4 µM (inactive)	14.9 µM (inactive)	21.7 µM (inactive)	63.1 µM (inactive)	15.2 µM (inactive)	38.5 µM (inactive)	> 100 µM (inactive)	
CC(=O)NC(CCCCN(Cc1ccccc1)C(=O)NCCCl)C(=O)NCc1ccccc1 (configuration not stated)		29.1 µM (inactive)		> 100 µM (inactive)	> 100 µM (inactive)	> 100 µM (inactive)	> 100 µM (inactive)		> 100 µM (inactive)
Nc1ncnc2c1ncn2C1CC(OC2CCCCO2)C(CO)O1 (configuration not stated)	> 100 µM (inactive)	> 100 µM (inactive)	> 100 µM (inactive)	> 100 µM (inactive)	> 100 µM (inactive)	> 100 µM (inactive)	> 100 µM (inactive)	> 100 µM (inactive)	
O=C1Nc2cc([N+](=O)[O-])c(Br)cc2C1=O	16.4 µM (inactive)		23.3 µM (inactive)		22.2 µM (inactive)	17.5 µM (inactive)	20.1 µM (inactive)	12.1 µM (inactive)	18.5 µM (inactive)
CCOC(=O)CN1C(=O)c2cccc3cc([N+](=O)[O-])cc(c23)C1=O		19.7 µM (inactive)	5.82 µM (inactive)	1.71 µM (inactive)	2.21 µM (inactive)	2.28 µM (inactive)		2.03 µM (inactive)	
COC(=O)/C(=N/NC(N)=O)C(C(=O)OC)C(=O)C(=O)Nc1ccc(Cl)cc1 (configuration not stated)	> 100 µM (inactive)	> 100 µM (inactive)		> 100 µM (inactive)	> 100 µM (inactive)	> 71.8 µM (inactive)	> 100 µM (inactive)	> 100 µM (inactive)	
CCOc1cccc2c1N[S@@](=O)S2	> 100 µM (inactive)		> 100 µM (inactive)	58.7 µM (inactive)	> 100 µM (inactive)		> 100 µM (inactive)	78.7 µM (inactive)	> 100 µM (inactive)
Cc1c2cc[n+](COC(=O)c3ccccc3)cc2c(C)c2c1[nH]c1ccccc12	0.743 µM (active)	< 0.01 µM (active)	1.32 µM (inactive)	0.506 µM (active)		0.75 µM (active)		1.62 µM (inactive)	
O=c1cc(-c2ccccc2)[nH]c2cc(F)cc(F)c12	31.6 µM (inactive)	43 µM (inactive)		53.6 µM (inactive)	28.5 µM (inactive)	24.7 µM (inactive)	10.3 µM (inactive)		
O=C(Nc1cccc(Cl)c1)C(=O)C(C(=O)c1ccc2ccccc2c1)C1OC(=O)c2ccccc21 (configuration not stated)	13.8 µM (inactive)	12.1 µM (inactive)	5.9 µM (inactive)	7.48 µM (inactive)	16.3 µM (inactive)	11.5 µM (inactive)	24.7 µM (inactive)		16.9 µM (inactive)
CN[C@@H](C)[C@H](N)c1ccccc1		> 100 µM (inactive)	> 100 µM (inactive)	> 100 µM (inactive)	> 100 µM (inactive)		> 100 µM (inactive)		> 100 µM (inactive)
CCCCCCCCCC(=O)OCC1OC(n2cc(F)c(=O)[nH]c2=O)C(N)C(OC(=O)CCCCCCCCC)C1O (configuration not stated)	17.4 µM (inactive)		15.8 µM (inactive)	16.6 µM (inactive)		15.7 µM (inactive)	20.4 µM (inactive)		
COc1cccc2c1C(=O)c1c(O)c3c(c(O)c1C2=O)C[C@@](O)(C(=O)CO)CC3OC1CC(N)C(OC2CCCCO2)C(C)O1 (some centres not stated)		0.0977 µM (active)	1.5 µM (inactive)	0.668 µM (active)	1.82 µM (inactive)		0.308 µM (active)	0.54 µM (active)	
C/C=C1/C(=O)O[C@]23C=C[C@@H]4C(C(=O)OC)=CO[C@H](O[C@@H]12)[C@@H]43 [PLUMERICIN]	0.726 µM (active)	4.67 µM (inactive)	1.94 µM (inactive)		0.432 µM (active)	1.12 µM (inactive)	2.32 µM (inactive)	1.38 µM (inactive)	
